According to the NIST ThermoML archive (doi:10.1016/j.jct.2009.05.006):
± gives the expanded uncertainty stated by the source.

What was measured:
[1] = xn = mol fraction of the nth substance listed; details: 298.15 K, 101 kPa, Liquid, Vibrating tube method
[2] = excess molar enthalpy (molar enthalpy of mixing); xn = mol fraction of the nth substance listed; details: 298.15 K, 101 kPa, Liquid, Calvet calorimetry

Q: What does the source list for BrCCCCCCBr [1,6-dibromohexane] + CCCCOC(C)=O?
A: mass density ([1]; x2 = 0.1369): 1513.56 ± 0.69 kg/m3; mass density ([1]; x2 = 0.2111): 1464.63 ± 0.64 kg/m3; mass density ([1]; x2 = 0.2634): 1429.52 ± 0.61 kg/m3; mass density ([1]; x2 = 0.3292): 1384.72 ± 0.57 kg/m3; mass density ([1]; x2 = 0.3855): 1345.64 ± 0.53 kg/m3; mass density ([1]; x2 = 0.4456): 1303.3 ± 0.49 kg/m3; mass density ([1]; x2 = 0.5046): 1260.95 ± 0.45 kg/m3; mass density ([1]; x2 = 0.5622): 1219.05 ± 0.42 kg/m3; mass density ([1]; x2 = 0.6175): 1178.12 ± 0.38 kg/m3; mass density ([1]; x2 = 0.7334): 1090.14 ± 0.31 kg/m3; mass density ([1]; x2 = 0.7855): 1049.66 ± 0.28 kg/m3; mass density ([1]; x2 = 0.8433): 1003.91 ± 0.25 kg/m3; mass density ([1]; x2 = 0.8909): 965.75 ± 0.24 kg/m3; mass density ([1]; x2 = 0.9462): 920.67 ± 0.24 kg/m3; excess molar enthalpy ([2]; x2 = 0.0742): 0.034 ± 0.001 kJ/mol; excess molar enthalpy ([2]; x2 = 0.1664): 0.058 ± 0.002 kJ/mol; excess molar enthalpy ([2]; x2 = 0.27): 0.075 ± 0.002 kJ/mol; excess molar enthalpy ([2]; x2 = 0.3625): 0.075 ± 0.002 kJ/mol; excess molar enthalpy ([2]; x2 = 0.4313): 0.063 ± 0.002 kJ/mol; excess molar enthalpy ([2]; x2 = 0.4863): 0.05 ± 0.002 kJ/mol; excess molar enthalpy ([2]; x2 = 0.5098): 0.04 ± 0.001 kJ/mol; excess molar enthalpy ([2]; x2 = 0.5385): 0.031 ± 0.001 kJ/mol; excess molar enthalpy ([2]; x2 = 0.5631): 0.017 ± 0.001 kJ/mol; excess molar enthalpy ([2]; x2 = 0.5869): 0.007 ± 0.001 kJ/mol; excess molar enthalpy ([2]; x2 = 0.6272): -0.01 ± 0.001 kJ/mol; excess molar enthalpy ([2]; x2 = 0.6989): -0.022 ± 0.001 kJ/mol; excess molar enthalpy ([2]; x2 = 0.7827): -0.026 ± 0.001 kJ/mol; excess molar enthalpy ([2]; x2 = 0.8669): -0.02 ± 0.001 kJ/mol; excess molar enthalpy ([2]; x2 = 0.9422): -0.01 ± 0.001 kJ/mol

Q: Which mass density ([1]; x1 = 0.0517) does the source give for CCCCOC(=O)CCC [butyl butanoate] + BrCCCCCBr here?
A: 1642.59 ± 0.82 kg/m3

Q: What about the mass density ([1]; x1 = 0.1033) of the same compound?
A: 1591.9 ± 0.77 kg/m3

Q: And the mass density ([1]; x1 = 0.1521)?
A: 1545.03 ± 0.72 kg/m3

Q: What about the mass density ([1]; x1 = 0.2029) of the same compound?
A: 1497.33 ± 0.68 kg/m3

Q: What about the mass density ([1]; x1 = 0.2545) of the same compound?
A: 1449.85 ± 0.63 kg/m3

Q: And the mass density ([1]; x1 = 0.3101)?
A: 1399.96 ± 0.58 kg/m3

Q: What about the mass density ([1]; x1 = 0.3663) of the same compound?
A: 1350.58 ± 0.54 kg/m3

Q: What about the mass density ([1]; x1 = 0.4214) of the same compound?
A: 1303.32 ± 0.49 kg/m3

Q: What about the mass density ([1]; x1 = 0.478) of the same compound?
A: 1255.87 ± 0.45 kg/m3

Q: What about the mass density ([1]; x1 = 0.6053) of the same compound?
A: 1153.05 ± 0.36 kg/m3

Q: And the mass density ([1]; x1 = 0.6591)?
A: 1111.13 ± 0.33 kg/m3

Q: And the mass density ([1]; x1 = 0.7254)?
A: 1060.71 ± 0.29 kg/m3

Q: And the mass density ([1]; x1 = 0.7885)?
A: 1013.92 ± 0.25 kg/m3

Q: What about the mass density ([1]; x1 = 0.8577) of the same compound?
A: 963.85 ± 0.24 kg/m3

Q: And the mass density ([1]; x1 = 0.9262)?
A: 915.51 ± 0.24 kg/m3

Q: What about the excess molar enthalpy ([2]; x1 = 0.0642) of the same compound?
A: 0.027 ± 0.001 kJ/mol

Q: What about the excess molar enthalpy ([2]; x1 = 0.1447) of the same compound?
A: 0.045 ± 0.001 kJ/mol

Q: What about the excess molar enthalpy ([2]; x1 = 0.2305) of the same compound?
A: 0.05 ± 0.002 kJ/mol

Q: And the excess molar enthalpy ([2]; x1 = 0.3193)?
A: 0.04 ± 0.001 kJ/mol

Q: What about the excess molar enthalpy ([2]; x1 = 0.3711) of the same compound?
A: 0.026 ± 0.001 kJ/mol

Q: And the excess molar enthalpy ([2]; x1 = 0.3957)?
A: 0.018 ± 0.001 kJ/mol

Q: What about the excess molar enthalpy ([2]; x1 = 0.4159) of the same compound?
A: 0.004 ± 0.001 kJ/mol

Q: What about the excess molar enthalpy ([2]; x1 = 0.4621) of the same compound?
A: -0.015 ± 0.001 kJ/mol

Q: What about the excess molar enthalpy ([2]; x1 = 0.4668) of the same compound?
A: -0.02 ± 0.001 kJ/mol

Q: And the excess molar enthalpy ([2]; x1 = 0.5278)?
A: -0.039 ± 0.001 kJ/mol

Q: What about the excess molar enthalpy ([2]; x1 = 0.6041) of the same compound?
A: -0.048 ± 0.002 kJ/mol

Q: And the excess molar enthalpy ([2]; x1 = 0.6965)?
A: -0.054 ± 0.002 kJ/mol

Q: What about the excess molar enthalpy ([2]; x1 = 0.806) of the same compound?
A: -0.048 ± 0.002 kJ/mol

Q: And the excess molar enthalpy ([2]; x1 = 0.9138)?
A: -0.029 ± 0.001 kJ/mol

Q: What does the source list for BrCCCBr [1,3-dibromopropane] + CCCCOC(=O)CC?
A: excess molar enthalpy ([2]; x2 = 0.045): 0.032 ± 0.001 kJ/mol; excess molar enthalpy ([2]; x2 = 0.1122): 0.052 ± 0.002 kJ/mol; excess molar enthalpy ([2]; x2 = 0.1829): 0.054 ± 0.002 kJ/mol; excess molar enthalpy ([2]; x2 = 0.2541): 0.038 ± 0.001 kJ/mol; excess molar enthalpy ([2]; x2 = 0.3191): 0.009 ± 0.001 kJ/mol; excess molar enthalpy ([2]; x2 = 0.3797): -0.034 ± 0.001 kJ/mol; excess molar enthalpy ([2]; x2 = 0.4331): -0.063 ± 0.002 kJ/mol; excess molar enthalpy ([2]; x2 = 0.4438): -0.071 ± 0.002 kJ/mol; excess molar enthalpy ([2]; x2 = 0.5107): -0.096 ± 0.002 kJ/mol; excess molar enthalpy ([2]; x2 = 0.5886): -0.109 ± 0.003 kJ/mol; excess molar enthalpy ([2]; x2 = 0.6793): -0.11 ± 0.003 kJ/mol; excess molar enthalpy ([2]; x2 = 0.7807): -0.092 ± 0.002 kJ/mol; excess molar enthalpy ([2]; x2 = 0.8921): -0.055 ± 0.002 kJ/mol

Q: Which excess molar enthalpy ([2]; x2 = 0.0669) does the source give for BrCCCCCBr [1,5-dibromopentane] + CCCCOC(C)=O here?
A: 0.028 ± 0.001 kJ/mol

Q: And the excess molar enthalpy ([2]; x2 = 0.1499)?
A: 0.04 ± 0.001 kJ/mol

Q: What about the excess molar enthalpy ([2]; x2 = 0.2436) of the same compound?
A: 0.042 ± 0.001 kJ/mol

Q: What about the excess molar enthalpy ([2]; x2 = 0.3318) of the same compound?
A: 0.035 ± 0.001 kJ/mol

Q: And the excess molar enthalpy ([2]; x2 = 0.4096)?
A: 0.019 ± 0.001 kJ/mol

Q: And the excess molar enthalpy ([2]; x2 = 0.4762)?
A: 0.001 ± 0.001 kJ/mol

Q: What about the excess molar enthalpy ([2]; x2 = 0.5331) of the same compound?
A: -0.02 ± 0.001 kJ/mol

Q: And the excess molar enthalpy ([2]; x2 = 0.5566)?
A: -0.032 ± 0.001 kJ/mol

Q: What about the excess molar enthalpy ([2]; x2 = 0.5827) of the same compound?
A: -0.039 ± 0.001 kJ/mol

Q: And the excess molar enthalpy ([2]; x2 = 0.6168)?
A: -0.052 ± 0.002 kJ/mol

Q: And the excess molar enthalpy ([2]; x2 = 0.6927)?
A: -0.063 ± 0.002 kJ/mol

Q: What about the excess molar enthalpy ([2]; x2 = 0.7844) of the same compound?
A: -0.059 ± 0.002 kJ/mol

Q: And the excess molar enthalpy ([2]; x2 = 0.8533)?
A: -0.044 ± 0.001 kJ/mol

Q: And the excess molar enthalpy ([2]; x2 = 0.9377)?
A: -0.024 ± 0.001 kJ/mol

Q: With BrCCCCBr [1,4-dibromobutane] + CCCCOC=O as the compound, how does the mass density ([1]; x2 = 0.0702) read?
A: 1756.08 ± 0.94 kg/m3

Q: What about the mass density ([1]; x2 = 0.1221) of the same compound?
A: 1708.91 ± 0.89 kg/m3

Q: And the mass density ([1]; x2 = 0.1836)?
A: 1652.89 ± 0.83 kg/m3

Q: What about the mass density ([1]; x2 = 0.241) of the same compound?
A: 1600.45 ± 0.78 kg/m3

Q: And the mass density ([1]; x2 = 0.3018)?
A: 1544.61 ± 0.72 kg/m3

Q: And the mass density ([1]; x2 = 0.4249)?
A: 1431.07 ± 0.61 kg/m3

Q: And the mass density ([1]; x2 = 0.4765)?
A: 1383.26 ± 0.57 kg/m3

Q: And the mass density ([1]; x2 = 0.5374)?
A: 1326.55 ± 0.52 kg/m3

Q: What about the mass density ([1]; x2 = 0.6529) of the same compound?
A: 1218.52 ± 0.42 kg/m3

Q: And the mass density ([1]; x2 = 0.7677)?
A: 1110.31 ± 0.33 kg/m3

Q: What about the mass density ([1]; x2 = 0.8248) of the same compound?
A: 1056.19 ± 0.29 kg/m3

Q: What about the mass density ([1]; x2 = 0.8824) of the same compound?
A: 1001.42 ± 0.25 kg/m3

Q: What about the mass density ([1]; x2 = 0.9353) of the same compound?
A: 950.88 ± 0.25 kg/m3

Q: What about the excess molar enthalpy ([2]; x2 = 0.0646) of the same compound?
A: 0.074 ± 0.002 kJ/mol

Q: What about the excess molar enthalpy ([2]; x2 = 0.1478) of the same compound?
A: 0.132 ± 0.003 kJ/mol

Q: And the excess molar enthalpy ([2]; x2 = 0.2392)?
A: 0.177 ± 0.004 kJ/mol

Q: And the excess molar enthalpy ([2]; x2 = 0.3291)?
A: 0.204 ± 0.005 kJ/mol

Q: What about the excess molar enthalpy ([2]; x2 = 0.4058) of the same compound?
A: 0.211 ± 0.005 kJ/mol

Q: And the excess molar enthalpy ([2]; x2 = 0.4726)?
A: 0.204 ± 0.005 kJ/mol

Q: What about the excess molar enthalpy ([2]; x2 = 0.5295) of the same compound?
A: 0.195 ± 0.004 kJ/mol

Q: What about the excess molar enthalpy ([2]; x2 = 0.5817) of the same compound?
A: 0.182 ± 0.004 kJ/mol

Q: And the excess molar enthalpy ([2]; x2 = 0.6425)?
A: 0.162 ± 0.004 kJ/mol

Q: What about the excess molar enthalpy ([2]; x2 = 0.7078) of the same compound?
A: 0.138 ± 0.003 kJ/mol

Q: What about the excess molar enthalpy ([2]; x2 = 0.7787) of the same compound?
A: 0.106 ± 0.003 kJ/mol

Q: And the excess molar enthalpy ([2]; x2 = 0.8648)?
A: 0.069 ± 0.002 kJ/mol

Q: What about the excess molar enthalpy ([2]; x2 = 0.9404) of the same compound?
A: 0.028 ± 0.001 kJ/mol
